Common to all, as to test: MTT cell death assay, chemotherapeutic with and without MADD siRNA knockdown
Format in all cases: cell-based

Assay [1] deals with K562 chronic myelogenous leukemia cells. As to conditions: siRNA 10 nM. How it is done: (§1) Cells are cultured and maintained at 37° C. in a humidified atmosphere containing 5% CO2 as described above. On Day 0, Cells are seeded in […] tissue culture dishes (Corning; Cat Number: 353003) to attain 60-70% confluence. In parallel, cells are also seeded in one 96-well plate (Corning; Cat number: 353072) for analysis of survival before reseeding. After 12-18 hours (Day 1), cells are transfected with Scramble or MADD siRNA at 10 nM concentration. The sequences of siRNAs (double-stranded) used are:
(§2) On Day 4, when cells are properly adhered and retained their shape in 96-well plates, drugs are added. All drugs are diluted in complete media on the same day prior to the addition to the cells. In untreated cells, media is replaced with complete media. Two hundred μl volume of media (with or without drugs) is used for the drug treatment assay. Plates are incubated 24 hours, 48 hours and 72 hours at 37° C. in humidified CO2 incubator.
(§3) An MTT assay is performed to determine relative survival after drug treatment as described above. MTT (3-[4,5-Dimethylthiazol-2-yl]-2,5-diphenyltetrazolium bromide; Thiazolyl blue) is purchased from Sigma Aldrich (Cat number: M5655). MTT is dissolved in sterile DPBS at the concentration of 5 mg/ml and filtered through 0.45 μM syringe filter (Corning; Cat number: 431220). Ten μl of MTT solution is added per well of 96-well plate. Plates are incubated for 2 hours at 37° C. in the humidified CO2 incubator. After 2 hours, media is aspirated using vacuum inside the biosafety hood. Purple colored crystals formed in viable cells are dissolved by adding 100 μl of Dimethyl sulfoxide (Thermo Fisher Scientific; Cat number D128-500) Plates are kept on shaker for 10 minutes for compete dissolution of crystals and absorbance is recorded at 595 nm using Bio-Rad iMark microplate reader. Data is analyzed in MICROSOFT EXCEL® software. Relative survival is calculated with respect to absorbance of control (untreated cells) to determine the effect of transfection as well as combination treatment.
(§4) Each data set takes into account any spontaneous cell death which is observed upon transfection with Scramble siRNA; the amount of spontaneous cell death from Scramble siRNA transfection (baseline) is subtracted from the amount of cell death observed in each siRNA transfection reaction to yield a Net Percent (Net %) cell death after accounting for Scrambled siRNA-induced cell death.
(§5) Cells are cultured and maintained at 37° C. in a humidified atmosphere containing 5% CO2 as described above. On Day 0, Cells are seeded in […] tissue culture dishes (Corning; Cat Number: 353003) to attain 60-70% confluence. In parallel, cells are also seeded in one 96-well plate (Corning; Cat number: 353072) for analysis of survival before reseeding. After 12-18 hours (Day 1), cells are transfected with Scramble or MADD siRNA at 10 nM concentration. The sequences of siRNAs (double stranded) used are:
(§6) On Day 4, when cells are properly adhered and retained their shape in 96-well plates, drugs are added. Doxorubicin was added at a working concentration of 5.0 nM, 9.375 nM, 0.075 μM, 0.25 μM, 0.5 μM, and 0.8 μM. All drugs are diluted in complete media on the same day prior to the addition to the cells. In untreated cells, media is replaced with complete media. Two hundred μl volume of media (with or without drugs) is used for the drug treatment assay. Plates are incubated 24 hours, 48 hours and 72 hours at 37° C. in humidified CO2 incubator.
(§7) An MTT assay is performed to determine relative survival after drug treatment as described above. MTT (3-[4,5-Dimethylthiazol-2-yl]-2,5-diphenyltetrazolium bromide; Thiazolyl blue) is purchased from Sigma Aldrich (Cat number: M5655). MTT is dissolved in sterile DPBS at the concentration of 5 mg/ml and filtered through […] syringe filter (Corning; Cat number: 431220). Ten μl of MTT solution is added per well of 96-well plate. Plates are incubated for 2 hours at 37° C. in the humidified CO2 incubator. […]

Assay [2] deals with H2227 lung cancer cells. The settings on record: siRNA 10 nM. How it is done:
as §1, §2, §3, §4, §5, §6, §7

Assay [3] deals with SU.86.86 pancreatic cancer cells. The settings on record: Doxorubicin 5 nM, siRNA 10 nM, 24 hours post Doxorubicin treatment. How it is done: as §1, §2, §3, §4, §5, §6, §7
The test system of assay [4] is N87 gastric carcinoma cells. The settings on record: Doxorubicin 0.8 μM, siRNA 10 nM, 72 hours post Doxorubicin treatment. The method, then:
as §5, §6
as §3, with “D128-500).” for “D128-500)”
as §4

In assay [5] the test system is JIMT1 breast cancer cells. The settings on record: Doxorubicin 0.075 μM, siRNA 10 nM, 24 hours post Doxorubicin treatment. The method, then:
as §5, §6
as §3, with “D128-500).” for “D128-500)”
as §4

In assay [6] the test system is OVCAR3 ovarian cancer cells. As to conditions: siRNA 10 nM. The method, then: as §1, §2, §3, §4, §5
as §3, with “D128-500).” for “D128-500)”, “Relative survival is calculated with respect to absorbance of control (untreated cells) to determine the effect of transfection as well as combination treatment.” left out

The subject of assay [7] is H522 lung cancer cells. The settings on record: Gemcitabine 8.2 nM, siRNA 10 nM, 48 hours post Gemcitabine treatment. The method, then:
as §1, §2, §3, §4, §5
as §3, with “D128-500).” for “D128-500)”, “Relative survival is calculated with respect to absorbance of control (untreated cells) to determine the effect of transfection as well as combination treatment.” left out

For assay [8], the system named is PLC/PRF/5 hepatic cancer cells. The settings on record: siRNA 10 nM. How it is done: (§8) Cells are cultured and maintained at 37° C. in a humidified atmosphere containing 5% CO2 as described above. […] After 12-18 hours (Day 1), cells are transfected with Scramble or MADD siRNA at 10 nM concentration. The sequences of siRNAs (double-stranded) used are:
as §2
as §3, with “MTT is dissolved in sterile DPBS at the concentration of 5 mg/ml and filtered through 0.45 μM syringe filter (Corning; Cat number: 431220).” left out
as §4
(§9) Cells are cultured and maintained at 37° C. in a humidified atmosphere containing 5% CO2 as described above. […] After 12-18 hours (Day 1), cells are transfected with Scramble or MADD siRNA at 10 nM concentration. The sequences of siRNAs (double stranded) used are:
as §3, with “MTT is dissolved in sterile DPBS at the concentration of 5 mg/ml and filtered through 0.45 μM syringe filter (Corning; Cat number: 431220).” left out, “D128-500).” for “D128-500)”
(§10) On Day 4, when cells are properly adhered and retained their shape in 96-well plates, drugs are added. All drugs are diluted in complete media on the same day prior to the addition to the cells. In untreated cells, media is replaced with complete media. Two hundred μl volume of media (with or without drugs) is used for the drug treatment assay. Plates are incubated 24 h, 48 h and 72 hours at 37° C. in humidified CO2 incubator.

The test system of assay [9] is AGS gastric adenocarcinoma cells. The settings on record: siRNA 10 nM. The method, then: as §8, §2
as §3, with “MTT is dissolved in sterile DPBS at the concentration of 5 mg/ml and filtered through 0.45 μM syringe filter (Corning; Cat number: 431220).” left out
as §4, §9
as §3, with “MTT is dissolved in sterile DPBS at the concentration of 5 mg/ml and filtered through 0.45 μM syringe filter (Corning; Cat number: 431220).” left out, “D128-500).” for “D128-500)”
as §10

The test system of assay [10] is 8505C thyroid cancer cells. The settings on record: 8505C; Cisplatin 2.5 μM; siRNA 10 nM; 48 hours post Cisplatin treatment. The method, then: as §9, §10
as §3, with “MTT is dissolved in sterile DPBS at the concentration of 5 mg/ml and filtered through 0.45 μM syringe filter (Corning; Cat number: 431220).” left out
as §4, §2

The subject of assay [11] is HTH7 thyroid cancer cells. As to conditions: siRNA 10 nM. The method, then:
as §9, §2
as §3, with “MTT is dissolved in sterile DPBS at the concentration of 5 mg/ml and filtered through 0.45 μM syringe filter (Corning; Cat number: 431220).” left out
as §4

[12] abbreviates: Doxorubicin 0.25 μM, 72 hours post Doxorubicin treatment.
Setting [13] is: Doxorubicin 0.5 μM, 48 hours post Doxorubicin treatment.
[14] abbreviates: Doxorubicin 9.375 nM, 48 hours post Doxorubicin treatment.
[15] abbreviates: Gemcitabine 25 nM, 48 hours post Gemcitabine treatment.
Where [16] appears, read: Gemcitabine 0.1 μM, 48 hours post Gemcitabine treatment.
The mark [17] stands for this setting: Gemcitabine 0.03125 μM, 24 hours post Gemcitabine treatment.
Setting [18] is: Gemcitabine 1 μM, 48 hours post Gemcitabine treatment.
The mark [19] stands for this setting: 5-flurouracil 25 μM, 72 hours post 5-flurouracil treatment.
Where [20] appears, read: Cisplatin 1.875 μM, 24 hours post Cisplatin treatment.
Setting [21] is: Cisplatin 1.25 μM, 72 hours post Cisplatin treatment.
The mark [22] stands for this setting: Cisplatin 5 μM, 24 hours post Cisplatin treatment.

Turning to `COc1cccc2c1C(=O)c1c(O)c3c(c(O)c1C2=O)C[C@@](O)(C(=O)CO)C[C@@H]3O[C@H]1C[C@H](N)[C@H](O)[C@H](C)O1` [Doxorubicin], the “Net % cell death after accounting for Scrambled siRNA” value (shortened to “Net % cell death after accounting”) came to 11% in assay [1] (setting [12]); 0% in [1] (setting [13]); 3% in assay [2] (setting [14]); 36% in assay [3]; 38% in assay [4]; 17% in assay [5]. Moreover, the “Observed % Cell death” value in assay [1] (setting [12]) is 11%; in assay [1] (setting [13]), 0%; in [2] (setting [14]), 3%; in [3], 36%; in [4], 38%; in assay [5], 17%.
As to `Nc1ccn([C@@H]2O[C@H](CO)[C@@H](O)C2(F)F)c(=O)n1` [Gemcitabine], the “Net % cell death after accounting” value in assay [2] (setting [15]) worked out at 15%; in assay [6] (setting [16]), 28%; in [7] it was 4%; in assay [8] (setting [17]), 1%; in [9] (setting [18]), 38%. In addition, the “Observed % Cell death” value in assay [2] (setting [15]) was 15%; in [6] (Gemcitabine 0.0125 μM, 72 hours post Gemcitabine treatment) it was 19%; in [6] (setting [16]), 28%; in assay [7], 4%; in assay [8] (setting [17]), 1%; in assay [9] (setting [18]) it was 38%.
Consider `O=c1[nH]cc(F)c(=O)[nH]1` [5-flurouracil], for which, in [9] (setting [19]), the “Net % cell death after accounting” value turned out to be 22% and the “Observed % Cell death” value was found to be 22%.
As for `N.N.[Cl][Pt][Cl]` [Cisplatin], the “Net % cell death after accounting” value in [10] came out at 19%; in [8] (setting [20]), 41%; in assay [11] (setting [21]) it was 0%; in assay [11] (setting [22]) it was 13%. Moreover, the “Observed % Cell death” value in [10] came to 19%; in [8] (setting [20]), 41%; in assay [11] (setting [21]), 0%; in assay [11] (setting [22]), 13%.

These data come from patent US11273172B2, “Synergistic combination of oligonucleotides and chemotherapeutic for treating cancer” (THE BOARD OF TRUSTEES OF THE UNIVERSITY OF ILLINOIS, priority 2017, dated 2022).
